Results published in PubChem BioAssay AID1259407 (Chemical Carcinogenesis Research Information System (CCRIS), 2018).
Calls of active or inactive are those of the source. The rule behind the calls is not given here.

System: CCRIS mutagenicity, Ames/micronucleus/aberration tests
Test: CCRIS mutagenicity studies
[1] = Test System: AMES SALMONELLA TYPHIMURIUM, Strain/Indicator: TA98, Metabolic Activation: NONE, Method: STANDARD PLATE
[2] = Test System: AMES SALMONELLA TYPHIMURIUM, Strain/Indicator: TA100, Metabolic Activation: NONE, Method: STANDARD PLATE
[3] = Test System: AMES SALMONELLA TYPHIMURIUM, Strain/Indicator: TA98, Metabolic Activation: NONE, Method: PREINCUBATION
[4] = Test System: AMES SALMONELLA TYPHIMURIUM, Strain/Indicator: TA100, Metabolic Activation: RAT, LIVER, S-9, AROCLOR 1254, Method: STANDARD PLATE
[5] = Test System: AMES SALMONELLA TYPHIMURIUM, Strain/Indicator: TA98, Metabolic Activation: RAT, LIVER, S-9, AROCLOR 1254, Method: PREINCUBATION
[6] = Test System: AMES SALMONELLA TYPHIMURIUM, Strain/Indicator: TA100, Metabolic Activation: NONE, Method: PREINCUBATION
[7] = Test System: AMES SALMONELLA TYPHIMURIUM, Strain/Indicator: TA100, Metabolic Activation: RAT, LIVER, S-9, AROCLOR 1254, Method: PREINCUBATION
[8] = Test System: AMES SALMONELLA TYPHIMURIUM, Strain/Indicator: TA104, Metabolic Activation: NONE, Method: PREINCUBATION
[9] = Test System: AMES SALMONELLA TYPHIMURIUM, Strain/Indicator: TA98, Metabolic Activation: RAT, LIVER, S-9, AROCLOR 1254, Method: STANDARD PLATE

For `FC(F)(Cl)Cl`, the mutagenic call (Test System: AMES SALMONELLA TYPHIMURIUM, Strain/Indicator: TA98, Metabolic Activation: NONE, Method: GAS EXPOSURE) was “inactive; negative”, the mutagenic call (Test System: AMES SALMONELLA TYPHIMURIUM, Strain/Indicator: TA98, Metabolic Activation: RAT LIVER S-9, PHENOBARBITAL AND BETA-NAPHTHOFLAVONE (40%), Method: GAS EXPOSURE) was “inactive; negative” and the mutagenic call (Test System: AMES SALMONELLA TYPHIMURIUM, Strain/Indicator: TA100, Metabolic Activation: NONE, Method: GAS EXPOSURE) was “inactive; negative”. The mutagenic call (Test System: AMES SALMONELLA TYPHIMURIUM, Strain/Indicator: TA100, Metabolic Activation: RAT LIVER S-9, PHENOBARBITAL AND BETA-NAPHTHOFLAVONE (40%), Method: GAS EXPOSURE) was “inactive; negative”, the mutagenic call (Test System: AMES SALMONELLA TYPHIMURIUM, Strain/Indicator: TA1535, Metabolic Activation: NONE, Method: GAS EXPOSURE) was “inactive; negative” and the mutagenic call (Test System: AMES SALMONELLA TYPHIMURIUM, Strain/Indicator: TA1535, Metabolic Activation: RAT LIVER S-9, PHENOBARBITAL AND BETA-NAPHTHOFLAVONE (40%), Method: GAS EXPOSURE) was “inactive; negative”. The mutagenic call (Test System: AMES SALMONELLA TYPHIMURIUM, Strain/Indicator: TA1537, Metabolic Activation: NONE, Method: GAS EXPOSURE) was “inactive; negative”, the mutagenic call (Test System: AMES SALMONELLA TYPHIMURIUM, Strain/Indicator: TA1537, Metabolic Activation: RAT LIVER S-9, PHENOBARBITAL AND BETA-NAPHTHOFLAVONE (40%), Method: GAS EXPOSURE) was “inactive; negative” and the mutagenic call (Test System: E.COLI, Strain/Indicator: WP2UVRA, Metabolic Activation: NONE, Method: GAS EXPOSURE) was “inactive; negative”. For the same compound, the mutagenic call (Test System: E.COLI, Strain/Indicator: WP2UVRA, Metabolic Activation: RAT LIVER S-9, PHENOBARBITAL AND BETA-NAPHTHOFLAVONE (40%), Method: GAS EXPOSURE) was “inactive; negative”.

With `COc1ccc2nc3cc(Cl)ccc3c(NCCCNCCCl)c2c1` the mutagenic call (Test System: AMES SALMONELLA TYPHIMURIUM, Strain/Indicator: TA97A, Metabolic Activation: NONE, Method: STANDARD PLATE) was “active; positive”, the mutagenic call [1] was “active; positive” and the mutagenic call [2] was “active; positive”. For the same compound, the mutagenic call (Test System: AMES SALMONELLA TYPHIMURIUM, Strain/Indicator: TA1535, Metabolic Activation: NONE, Method: STANDARD PLATE) was “inactive; negative”, the mutagenic call (Test System: AMES SALMONELLA TYPHIMURIUM, Strain/Indicator: TA1536, Metabolic Activation: NONE, Method: STANDARD PLATE) was “active; positive” and the mutagenic call (Test System: AMES SALMONELLA TYPHIMURIUM, Strain/Indicator: TA1538, Metabolic Activation: NONE, Method: STANDARD PLATE) was “active; positive”. For the same compound, the mutagenic call (Test System: CHINESE HAMSTER V-79, Strain/Indicator: V-79/6-THIOGUANINE, Metabolic Activation: NONE, Method: FLASK ASSAY) was “active; positive”, the mutagenic call (Test System: CHO/HGPRT, Strain/Indicator: CHO-K1-BH4, Metabolic Activation: NONE, Method: STANDARD PLATE) was “active; positive” and the mutagenic call (Test System: UDS RODENT CELLS, Strain/Indicator: THY INCORP (NON-S-PHASE), Metabolic Activation: NONE, Method: LIQUID SCINTILLATION COUNTING) was “active; positive”.

`CC(C)(C)CNC(=O)C=Cc1ccc([N+](=O)[O-])o1` was tested, and the mutagenic call [3] was “active; positive”.

`CC1=Cc2nc3c(ccc4ccccc43)c(C)c2[C@H](O)[C@H]1O` was tested, and the mutagenic call [4] was “active; positive”.

For `Cc1cnc2ccc3c(ncn3C)c2n1`, the mutagenic call [3] was “inactive; negative”, the mutagenic call [5] was “inactive; negative” and the mutagenic call [6] was “inactive; negative”. The mutagenic call [7] was “inactive; negative”.

`O=C(Cl)CCc1ccccc1` was tested, and the mutagenic call [3] was “active; positive”, the mutagenic call (Test System: AMES SALMONELLA TYPHIMURIUM, Strain/Indicator: TA98, Metabolic Activation: RAT LIVER S-9, PCB, Method: PREINCUBATION) was “active; positive” and the mutagenic call [6] was “active; positive”. For the same compound, the mutagenic call (Test System: AMES SALMONELLA TYPHIMURIUM, Strain/Indicator: TA100, Metabolic Activation: RAT LIVER S-9, PCB, Method: PREINCUBATION) was “active; positive”, the mutagenic call [8] was “active; positive” and the mutagenic call (Test System: AMES SALMONELLA TYPHIMURIUM, Strain/Indicator: TA104, Metabolic Activation: RAT LIVER S-9, PCB, Method: PREINCUBATION) was “active; positive”. For the same compound, the mutagenic call (Test System: E.COLI, Strain/Indicator: WP2 UVRA, Metabolic Activation: NONE, Method: PREINCUBATION) was “inactive; negative” and the mutagenic call (Test System: E.COLI, Strain/Indicator: WP2 UVRA, Metabolic Activation: RAT LIVER S-9, PCB, Method: PREINCUBATION) was “active; positive”.

`O=Nc1ccc(Oc2ccccc2)cc1` was tested, and the mutagenic call [1] was “active; positive” and the mutagenic call (Test System: AMES SALMONELLA TYPHIMURIUM, Strain/Indicator: TA100, Metabolic Activation: GUINEA PIG, LIVER, S-9, KANECLOR 500, Method: STANDARD PLATE) was “active; positive”.

With `CC1C=Cc2ccc3ccc4ccccc4c3c21` (stereo not drawn) the mutagenic call [4] was “inactive; negative”.

With `CN1CCN(c2ccc3nc(-c4ccc5nc(-c6ccc(O)cc6)[nH]c5c4)[nH]c3c2)CC1` the mutagenic call [1] was “inactive; negative”, the mutagenic call [2] was “inactive; negative” and the mutagenic call (Test System: AMES SALMONELLA TYPHIMURIUM, Strain/Indicator: TA102, Metabolic Activation: NONE, Method: STANDARD PLATE) was “inactive; negative”.

`OC1C=Cc2c(cc3ccc4cccc5ccc2c3c45)C1O` (stereo not drawn) was tested, and the mutagenic call (Test System: CHINESE HAMSTER V-79, Strain/Indicator: V-79/OUABAIN, Metabolic Activation: HAMSTER, EMBRYO, CELL-MEDIATED, Method: STANDARD PLATE) was “active; positive”.

With `BrCCCCBr` the mutagenic call (End Point: IN VITRO CHROMOSOMAL ABERRATIONS, Test System: CHL CELLS, Metabolic Activation: RAT, LIVER, S-9, SODIUM PHENOBARBITAL AND 5,6-BENZOFLAVONE) was “active; positive (structural changes); authors report equivocal results for ploidy chang”, the mutagenic call [3] was “inactive; negative” and the mutagenic call (Test System: AMES SALMONELLA TYPHIMURIUM, Strain/Indicator: TA98, Metabolic Activation: RAT LIVER S-9, PHENOBARBITAL AND BETA-NAPHTHOFLAVONE, Method: PREINCUBATION) was “inactive; negative”. For the same compound, the mutagenic call [6] was “inactive; negative”, the mutagenic call (Test System: AMES SALMONELLA TYPHIMURIUM, Strain/Indicator: TA1535, Metabolic Activation: NONE, Method: PREINCUBATION) was “active; positive” and the mutagenic call (Test System: AMES SALMONELLA TYPHIMURIUM, Strain/Indicator: TA1535, Metabolic Activation: RAT LIVER S-9, PHENOBARBITAL AND BETA-NAPHTHOFLAVONE, Method: PREINCUBATION) was “active; positive”. For the same compound, the mutagenic call (Test System: AMES SALMONELLA TYPHIMURIUM, Strain/Indicator: TA1537, Metabolic Activation: NONE, Method: PREINCUBATION) was “inactive; negative”, the mutagenic call (Test System: AMES SALMONELLA TYPHIMURIUM, Strain/Indicator: TA1537, Metabolic Activation: RAT LIVER S-9, PHENOBARBITAL AND BETA-NAPHTHOFLAVONE, Method: PREINCUBATION) was “inactive; negative” and the mutagenic call (Test System: E.COLI, Strain/Indicator: WP2UVRA, Metabolic Activation: NONE, Method: PREINCUBATION) was “active; positive”. The mutagenic call (Test System: E.COLI, Strain/Indicator: WP2UVRA, Metabolic Activation: RAT LIVER S-9, PHENOBARBITAL AND BETA-NAPHTHOFLAVONE, Method: PREINCUBATION) was “active; positive”.

`Nc1nc2ccc(O)cc2[nH]1` was tested, and the mutagenic call [5] was “active; positive” and the mutagenic call [7] was “inactive; negative”.

`Oc1cc2ccccc2c2ccccc12` was tested, and the mutagenic call [9] was “inactive; negative” and the mutagenic call (Test System: AMES SALMONELLA TYPHIMURIUM, Strain/Indicator: TA1535, Metabolic Activation: RAT, LIVER, S-9, AROCLOR 1254, Method: STANDARD PLATE) was “active; positive”.

For `O=C/C=C\C=O`, the mutagenic call (End Point: In vitro micronucleus, Test System: Mouse lymphoma L5178Y cells, Metabolic Activation: None) was “active; positive”, the mutagenic call [8] was “active; positive” and the mutagenic call (Test System: Mouse lymphoma, Strain/Indicator: L5178Y (tk+/tk-), Metabolic Activation: None, Method: Preincubation) was “active; positive”.

For `OC1C[C@]23C=CC=C[C@@]2(C1)O3` (stereo partly drawn), the mutagenic call [1] was “inactive; negative”, the mutagenic call [2] was “inactive; negative” and the mutagenic call (Test System: AMES SALMONELLA TYPHIMURIUM, Strain/Indicator: TM677/8-AZAGUANINE, Metabolic Activation: NONE, Method: STANDARD PLATE) was “active; positive”.

`O[C@H]1[C@H]2O[C@H]2c2c(ccc3c4c5c(cccc5cc23)C=C4)[C@@H]1O` was tested, and the mutagenic call [1] was “active; positive”, the mutagenic call (Test System: AMES SALMONELLA TYPHIMURIUM, Strain/Indicator: TA98, Metabolic Activation: RAT, LIVER, S-9, AROCLOR 1254 (0.4, 0.8, 1.15 OR 1.5 MG/PLATE), Method: STANDARD PLATE) was “active; positive” and the mutagenic call [9] was “active; positive”.
